No end group written: not given here.
Assays:
[1] = system: human leukocyte (WBC) cells; assay: Stimulation and proliferation of leukocytes, Alamar Blue; type: cell-based; details: compared to untreated positive control cells; Alamar Blue
Pseudomonas aeruginosa = assay: Serum inactivation of peptides, serum MIC; type: cell-based; details: for MIC 30 min treatment: sheep serum 37° C. 30 minutes; for MIC 2 hr treatment: sheep serum 37° C. 2 hours
Protocol: Subsequently, the serum MICs against Pseudomonas aeruginosa were conducted to determine extent of serum inactivation of the peptides.

## MPKWKVFKKIEKVGRNIRNGIVKAGPAIAVLGEAKALG-NH2 [P12, reference compound]
[1]
  stimulatory and/or inhibitory action on growth of human leukocyte (WBC) cells: stimulatory (and/or proliferative) at all concentrations through 500 μg/ml

## FALKALKKLKKALKKAL-NH2 [P153]
Pseudomonas aeruginosa; first of two columns
  MIC 30 min treatment: 10 µg/mL
  MIC 2 hr treatment: 20 µg/mL
Pseudomonas aeruginosa; second of two columns
  MIC 30 min treatment: 5 µg/mL
  MIC 2 hr treatment: 5 µg/mL
Pseudomonas aeruginosa; sheep serum, […], 37° C. for 30 minutes or 2 hours
  change of activity by exposure to serum (serum MIC against Pseudomonas aeruginosa): only modestly decreased

Source: patent publication US20050209157A1, “Short bioactive peptides and methods for their use” (priority 2001, published 2005)
